# Results published in patent US11603368B2, “Fused thiophene derivatives and their uses” (ENYO PHARMA, priority 2018, dated 2023).
# Where a name gives a salt, the structure may show the parent alone.
# System: H1N1 (influenza A/New Caledonia/20/99)
# Assay: Antiviral effect on A549 cells infected with H1N1
# Format: cell-based, H1N1 A/New Caledonia/20/99 virus
# Conditions: Human A549 cells, MOI of 0.1, 48 h post-infection, MUNANA hydrolysis readout
# Experimental: The antiviral effect of the compounds of the invention has been tested on A549 cell lines infected with H1N1 (influenza A/New Caledonia/20/99).
# Human A549 cells (80,000 cells/well in a 96 well plate) were treated with a range of concentration of test molecules and immediately infected by H1N1 A/New Caledonia/20/99 virus (clinical isolate) at MOI of 0.1 in DMEM/1% Penicillin/streptomycin supplemented with 0.25 μg/ml TPCK trypsin (Sigma) and incubated at 37° C. in 5% CO2. 48 h post-infection, supernatants (25 μl) were collected and transferred into a 96-well black flat-bottom plate, mixed with 25 μl PBS with Ca++/Mg++(Thermo Fisher) and 50 μl of 2′-(4-Methylumbelliferyl)-α-D-N-acetylneuraminic acid sodium salt hydrate stock-solution (20 μM, MUNANA, Sigma). Plates were incubated 1 h at 37° C. and reaction is stopped by adding 100 μl of Stop Solution (glycine 0.1 M pH10.7/25% ethanol). The amount of fluorescent product released by MUNANA hydrolysis (4-MU) was measured in a Tecan spectrophotometer with excitation and emission wavelengths of 365 and 450 nm respectively.
row,SMILES,IC50
1,O=C(Nc1sc2c(c1C(=O)O)C1CCC2C1)c1ccccc1 (centres unmarked) [#28],1270 nM
2,O=C(Nc1sc2c(c1C(=O)O)CCC(c1ccccc1)C2)c1ccccc1 (centres unmarked) [#47A],40 nM
3,O=C(Nc1sc2c(c1C(=O)O)CCC(c1ccccc1)C2)c1ccccc1 (centres unmarked) [#47B],70 nM
4,CC(C)(C)C1CCc2c(sc(NC(=O)c3ccccc3)c2C(=O)O)C1 (centres unmarked) [#66],69.3 nM
5,CC(C)(C)C1CCc2c(sc(NC(=O)c3ccccc3)c2C(=O)O)C1 (centres unmarked) [#67],91.7 nM
6,CC(C)(C)C1CCc2c(sc(NC(=O)c3ccccc3F)c2C(=O)O)C1 (centres unmarked) [#73],180 nM
7,CC1CCCc2sc(NC(=O)c3ccccc3)c(C(=O)O)c21 (centres unmarked) [#79],292 nM
8,Cc1ccccc1C(=O)Nc1sc2c(c1C(=O)O)CCC(C(C)(C)C)C2 (centres unmarked) [#87],445 nM
9,CC1CCCc2sc(NC(=O)c3ccccc3)c(C(=O)O)c21 (centres unmarked) [#88],547 nM
10,CC(C)(C)C1CCc2c(sc(NC(=O)c3ccccc3C(F)(F)F)c2C(=O)O)C1 (centres unmarked) [#100],873 nM
11,CC(C)(C)C1CCc2c(sc(NC(=O)c3ccccc3C(F)(F)F)c2C(=O)O)C1 (centres unmarked) [#109],1200 nM
12,CC(C)(C)C1CCc2c(sc(NC(=O)c3ccc(F)cc3)c2C(=O)O)C1 (centres unmarked) [#236],131 nM
13,CC(C)(C)C1CCc2c(sc(NC(=O)c3ccc(F)cc3)c2C(=O)O)C1 (centres unmarked) [#237],211 nM
14,CC(C)(C)C1CCc2c(sc(NC(=O)c3ccccc3F)c2C(=O)O)C1 (centres unmarked) [#238],310 nM
15,Cc1ccccc1C(=O)Nc1sc2c(c1C(=O)O)CCC(C(C)(C)C)C2 (centres unmarked) [#239],548 nM

# Same assay, conditions: Influenza A virus, H1N1, A549, 48 h, Human A549 cells, MOI of 0.1, 48 h post-infection, MUNANA hydrolysis readout
row,SMILES,IC50
1,COc1cccc(C(=O)Nc2sc3c(c2C(=O)O)CCC(C(C)(C)C)C3)c1 (centres unmarked) [#2],70 nM
2,COc1ccc(C(=O)Nc2sc3c(c2C(=O)O)CCC(C(C)(C)C)C3)cc1OC (centres unmarked) [#3],55 nM
3,COc1cc(C(=O)Nc2sc3c(c2C(=O)O)CCC(C(C)(C)C)C3)cc(OC)c1OC (centres unmarked) [#4],1070 nM
4,COc1ccc(C(=O)Nc2sc3c(c2C(=O)O)CCC(C(C)(C)C)C3)c(F)c1 (centres unmarked) [#5],60 nM
5,COc1ccc(C(=O)Nc2sc3c(c2C(=O)O)CCC(C(C)(C)C)C3)c(F)c1F (centres unmarked) [#6],90 nM
6,CC(C)(C)C1CCc2c(sc(NC(=O)c3ccc(OC(F)F)cc3)c2C(=O)O)C1 (centres unmarked) [#7],34.6 nM
7,CC(C)(C)C1CCc2c(sc(NC(=O)c3ccc(OC(F)(F)F)cc3)c2C(=O)O)C1 (centres unmarked) [#8],38.5 nM
8,CC(C)(C)C1CCc2c(sc(NC(=O)c3ccc(N4CCOCC4)cc3)c2C(=O)O)C1 (centres unmarked) [#9],70 nM
9,CC(C)(C)OC(=O)NCCCOc1ccc(C(=O)Nc2sc3c(c2C(=O)O)CCC(C(C)(C)C)C3)cc1 (centres unmarked) [#11],140 nM
10,CC(C)(C)C1CCc2c(sc(NC(=O)c3ccc(OCCO)cc3)c2C(=O)O)C1 (centres unmarked) [#12],450 nM
11,Cc1ccccc1C(=O)Nc1sc2c(c1C(=O)O)CCC(c1ccccc1)C2 (centres unmarked) [#45],338 nM
12,COc1ccc(C(=O)Nc2sc3c(c2C(=O)O)CCC(c2ccccc2)C3)cc1OC (centres unmarked) [#48],90 nM
13,O=C(Nc1sc2c(c1C(=O)O)CCC(c1ccccc1)C2)c1ccc(O)cc1 (centres unmarked) [#49],410 nM
14,O=C(Nc1sc2c(c1C(=O)O)CCC(c1ccccc1)C2)c1ccc(OCCO)cc1 (centres unmarked) [#50],90 nM
15,COCCOc1ccc(C(=O)Nc2sc3c(c2C(=O)O)CCC(c2ccccc2)C3)cc1 (centres unmarked) [#51],38 nM
16,Cc1cc(F)ccc1N1CCc2c(sc(NC(=O)c3ccccc3)c2C(=O)O)C1 [#53],140 nM
17,COc1ccc(C(=O)Nc2sc3c(c2C(=O)O)CCN(c2ccc(F)cc2C)C3)c(F)c1 [#55],410 nM
18,O=C(Nc1sc2c(c1C(=O)O)CCN(c1ccc(F)cc1F)C2)c1ccccc1 [#56],150 nM
19,Cc1ccccc1N1CCc2c(sc(NC(=O)c3ccccc3)c2C(=O)O)C1 [#57],210 nM
20,CC(C)(C)C1CCc2c(sc(NC(=O)c3ccc(F)cc3)c2C(=O)O)C1 (centres unmarked) [#68],120 nM
21,CC1CCCc2sc(NC(=O)c3ccc(N4CCOCC4)cc3)c(C(=O)O)c21 (centres unmarked) [#70],146 nM
22,CC(C)(C)C1CCc2c(sc(NC(=O)c3ccccn3)c2C(=O)O)C1 (centres unmarked) [#72],170 nM
23,CC1CCCc2sc(NC(=O)c3ccc(OC(F)F)cc3)c(C(=O)O)c21 (centres unmarked) [#75],210 nM

row,SMILES,IC50
1,COc1ccc(C(=O)Nc2sc3c(c2C(=O)O)C(C)CCC3)c(F)c1 (centres unmarked) [#76],218 nM
2,O=C(Nc1sc2c(c1C(=O)O)CCCC2)c1ccccc1 [#77],260 nM
3,COc1ccc(C(=O)Nc2sc3c(c2C(=O)O)C(C)CCC3)cc1OC (centres unmarked) [#81],339 nM
4,CC(C)(C)C1CCc2c(sc(NC(=O)c3cccc(F)c3)c2C(=O)O)C1 (centres unmarked) [#83],380 nM
5,O=C(Nc1sc2c(c1C(=O)O)CCCCC2)c1ccccc1 [#84],400 nM
6,Cc1ccccc1C(=O)Nc1sc2c(c1C(=O)O)CCC(C)C2 (centres unmarked) [#86],410 nM
7,CC1CCCCC1C(=O)Nc1sc2c(c1C(=O)O)CCC(C(C)(C)C)C2 (centres unmarked) [#89],590 nM
8,COc1ccc(C(=O)Nc2sc3c(c2C(=O)O)CCC(C(C)(C)C)C3)nc1 (centres unmarked) [#91],620 nM
9,O=C(Nc1sc2c(c1C(=O)O)CCN(c1ccc(C(F)(F)F)cc1)C2)c1ccccc1 [#92],660 nM
10,CC(=O)Nc1ccc(C(=O)Nc2sc3c(c2C(=O)O)CCC(C(C)(C)C)C3)cc1 (centres unmarked) [#93],660 nM
11,Cc1ccccc1C(=O)Nc1sc2c(c1C(=O)O)CCCC2 [#95],723 nM
12,CC(C)(C)C1CCc2c(sc(NC(=O)c3ccccc3C(F)(F)F)c2C(=O)O)C1 (centres unmarked) [#97],800 nM
13,CC(C)(C)C1CCc2c(sc(NC(=O)c3ccc4c(c3)OC(F)(F)O4)c2C(=O)O)C1 (centres unmarked) [#99],830 nM
14,Cn1cc(C(=O)Nc2sc3c(c2C(=O)O)CCC(C(C)(C)C)C3)cn1 (centres unmarked) [#101],943 nM
15,CC1CCCc2sc(NC(=O)c3cccc(OC(F)F)c3)c(C(=O)O)c21 (centres unmarked) [#102],970 nM
16,COc1ccccc1C(=O)Nc1sc2c(c1C(=O)O)CCC(C(C)(C)C)C2 (centres unmarked) [#104],1050 nM
17,CC(C)(C)C(=O)Nc1sc2c(c1C(=O)O)CCC(c1ccccc1)C2 (centres unmarked) [#106],1100 nM
18,O=C(Nc1sc2c(c1C(=O)O)C(c1ccccc1)CCC2)c1ccc(OC(F)F)cc1 (centres unmarked) [#108],1170 nM
19,Cc1ccoc1C(=O)Nc1sc2c(c1C(=O)O)CCC(C(C)(C)C)C2 (centres unmarked) [#110],1200 nM
20,Cc1ccccc1C(=O)Nc1sc2cc(C(C)(C)C)ccc2c1C(=O)O [#111],1370 nM
21,COc1ccc(C(=O)Nc2sc3c(c2C(=O)O)CCN(c2ccc(F)cc2)C3)cc1OC [#113],1370 nM
22,CC1(C)Cc2c(sc(NC(=O)c3ccccc3)c2C(=O)O)CO1 [#116],1700 nM
23,Cc1cccc(C)c1C(=O)Nc1sc2c(c1C(=O)O)CCC(C(C)(C)C)C2 (centres unmarked) [#118],1950 nM

row,SMILES,IC50
1,COc1ccc(C(=O)Nc2sc3c(c2C(=O)O)CC(C)(C)OC3)cc1OC [#119],2200 nM
2,CC(C)(C)C1CCc2c(sc(NC(=O)N3CCCCC3)c2C(=O)O)C1 (centres unmarked) [#120],2270 nM
3,Cc1ccccc1C(=O)Nc1sc2c(c1C(=O)O)CCC2 [#121],2350 nM
4,O=C(Nc1sc2c(c1C(=O)O)CCC(c1ccc(O)cc1)C2)c1ccccc1 (centres unmarked) [#122],2370 nM
5,CC(C)(C)C1CCc2c(sc(NC(=O)c3ccncc3)c2C(=O)O)C1 (centres unmarked) [#123],2700 nM
6,"CC(C)(C)C1CCc2c(sc(NC(=O)c3ccc(OCCCN)cc3)c2C(=O)O)C1 (centres unmarked) [#124, hydrochloride salt]",2700 nM
7,CC(C)(C)C1CCc2c(sc(NC(=O)Cc3ccccc3)c2C(=O)O)C1 (centres unmarked) [#125],2800 nM
8,Cc1ccccc1C(=O)Nc1sc2c(c1C(=O)O)CCN(C(=O)OC(C)(C)C)C2 [#126],2900 nM
9,Cc1ccccc1C(=O)Nc1sc2ccccc2c1C(=O)O [#128],5000 nM
10,"Cc1ccccc1C(=O)Nc1sc2c(c1C(=O)O)CCN(CC(C)C)C2 [#129, formate salt]",16600 nM
11,COC(=O)CCCCCOc1ccc(C(=O)Nc2sc3c(c2C(=O)O)CCC(C(C)(C)C)C3)cc1 (centres unmarked) [#172],510 nM
12,CC1(C)Cc2c(sc(NC(=O)c3ccccc3)c2C(=O)O)C(C)(C)O1 [#175],740 nM
13,COC1CN(c2ccc(C(=O)Nc3sc4c(c3C(=O)O)CCC4)cc2)C1 [#207],380 nM
14,O=C(Nc1sc2c(c1C(=O)O)CCC2)c1ccccc1 [#210],817 nM
15,O=C(Nc1sc2c(c1C(=O)O)CCC2)c1ccc(NCC2CCOCC2)cc1 [#211],260 nM
16,COC1CN(c2ccc(C(=O)Nc3sc4c(c3C(=O)O)CCCC4)cc2)C1 [#215],110 nM
17,O=C(Nc1sc2c(c1C(=O)O)CCCC2)c1ccc(NCC2CCOCC2)cc1 [#216],60 nM
18,COC1CN(c2ccc(C(=O)Nc3sc4c(c3C(=O)O)CC(C)(C)OC4(C)C)cc2)C1 [#217],510 nM
19,COCCNc1ccc(C(=O)Nc2sc3c(c2C(=O)O)CCC3)cc1 [#231],890 nM
20,CC1(C)Cc2c(sc(NC(=O)c3ccc(NC4CCOCC4)cc3)c2C(=O)O)C(C)(C)O1 [#232],1380 nM
21,CC1(C)Cc2c(sc(NC(=O)c3ccc(NCC4CCOCC4)cc3)c2C(=O)O)C(C)(C)O1 [#233],220 nM
22,COCCNc1ccc(C(=O)Nc2sc3c(c2C(=O)O)CC(C)(C)OC3(C)C)cc1 [#234],980 nM
